Ki and melting point data for 13 compounds are collected here from US7071212B2, “N-(4-carbamimidoyl-phenyl)-glycine derivatives” (Hoffmann-La Roche Inc., priority 1998, dated 2006).

The target in one data set is T1, factor VIIa/tissue factor complex (Homo sapiens, UniProt P08709).
T1 construct: 9 nM of soluble factor VIIa
T1 sequence (P08709 213-466 limits assumed): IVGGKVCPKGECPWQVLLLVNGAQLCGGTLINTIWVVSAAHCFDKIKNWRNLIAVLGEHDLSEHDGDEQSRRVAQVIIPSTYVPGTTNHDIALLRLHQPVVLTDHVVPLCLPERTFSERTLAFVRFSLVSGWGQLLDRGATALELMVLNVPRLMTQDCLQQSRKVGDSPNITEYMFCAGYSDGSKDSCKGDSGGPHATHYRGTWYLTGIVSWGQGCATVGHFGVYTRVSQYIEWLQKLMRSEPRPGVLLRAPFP
T1 sequence (P08709 61-212 partner limits assumed): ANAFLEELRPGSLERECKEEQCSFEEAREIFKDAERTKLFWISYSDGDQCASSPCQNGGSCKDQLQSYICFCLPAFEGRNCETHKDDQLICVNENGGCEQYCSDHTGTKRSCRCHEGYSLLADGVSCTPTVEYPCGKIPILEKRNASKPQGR
T1 sequence (P13726 33-295 partner): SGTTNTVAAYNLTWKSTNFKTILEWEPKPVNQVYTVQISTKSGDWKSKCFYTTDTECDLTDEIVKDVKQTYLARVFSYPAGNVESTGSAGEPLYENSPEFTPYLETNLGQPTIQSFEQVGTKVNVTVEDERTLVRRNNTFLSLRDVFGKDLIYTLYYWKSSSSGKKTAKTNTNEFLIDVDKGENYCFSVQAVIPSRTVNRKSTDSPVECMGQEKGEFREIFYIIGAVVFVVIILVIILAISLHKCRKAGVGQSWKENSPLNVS
Kind of data set: inhibition of the amidolytic activity of factor VIIa/tissue factor complex (chromogenic peptide substrate). Format: biochemical. As to conditions: 26 nM tissue factor, 9 nM soluble factor VIIa, 8 mM calcium chloride, substrate Chromozym-tPA, pH 7.5, room temperature. The procedure:
The measurements were carried out on microtitre plates at room temperature. To this end, 100 μl of a solution of 26 nM of tissue factor, 9 nM of soluble factor VIIa and 8 mM of calcium chloride were added to 25 μl of a solution of the inhibitor in a buffer [pH 7.5, 100 mM, comprising 0.14M NaCl, 0.1M N-(2-hydroxyethyl)piperazine-N′-(2-ethanesulphonic acid) (HEPES), 0.5 mg/l of fatty-acid-free BSA (bovine serum albumin) and 0.05% NaN3] in each well of the plate. After an incubation time of 15 minutes the reaction was started by the addition of 50 μl of chromogenic substrate Chromozym-tPA (3.5 mM, MeSO2-D-Phe-Gly-Arg-paranitroanilide) and the hydrolysis of the substrate was followed spectrophotometrically on a kinetic microtitre plate reader over 10 minutes. Using the plot of the inhibition curves, the Ki values were determined according to the method described in Biochem. J. 55, 1953, 170–171. The results will be evident from the following Table (Ki in μM/l): […]
For orientation: Ki means a measure of affinity in units of concentration, obtained from inhibition or displacement. Take `COc1cc(OC)c(OCC(=O)O)c(C(Nc2ccc(C(=N)N)cc2)C(=O)O)c1` (racemic) [Example 15, (RS)-(4-carbamimidoyl-phenylamino)-(2-carboxymethoxy-3,5-dimethoxy-phenyl)-acetic acid]: the inhibition constant (Ki) was 84 nM.
Still for that read-out and setting: to `COc1cc(OCC(=O)O)c(C(Nc2ccc(C(=N)N)cc2)C(=O)O)cc1OC` (racemic) [Example 17, (RS)-(4-carbamimidoyl-phenylamino)-(2-carboxymethoxy-4,5-dimethoxy-phenyl)-acetic acid] belongs 38.5 nM.

Tested on in another data set: not given
Assay: not given
Details: not given
Usually melting point stands for the temperature, or range, at which the solid turns liquid. With `N=C(N)c1ccc(NC(C(=O)O)c2cccc(OCc3ccccc3)c2)cc1` (racemic) [Example 39.4, (RS)-(3-benzyloxy-phenyl)-(4-carbamimidoyl-phenylamino)-acetic acid], the melting point was 306 °C.
Take `N=C(N)c1ccc(NC(C(=O)O)c2ccccc2OCC(=O)O)cc1` (racemic) [Example 40.3, (RS)-(4-carbamimidoyl-phenylamino)-(2-carboxymethoxy-phenyl)-acetic acid]: the melting point came to 223 °C.
`COc1ccc(OC)c(C(Nc2ccc(C(=N)N)cc2)C(=O)O)c1` (racemic) [Example 41.4, (RS)-(4-carbamimidoyl-phenylamino)-(2,5-dimethoxy-phenyl)-acetic acid]: the melting point turned out to be 310 °C.
The compound `COc1ccc(OCC(=O)O)c(C(Nc2ccc(C(=N)N)cc2)C(=O)O)c1` (racemic) [Example 43.4, (RS)-(4-carbamimidoyl-phenylamino)-(2-carboxymethoxy-5-methoxy-phenyl)-acetic acid] came in with a melting point of 213 °C.
Compound `CCOc1ccc(OCCCCC(=O)O)c(C(Nc2ccc(C(=N)N)cc2)C(=O)O)c1` (racemic) [Example 45.4, (RS)-5-{2-[(4-carbamimidoyl-phenylamino)-carboxy-methyl]-4-ethoxy-phenoxy}-pentanoic acid] registered a melting point of 260 °C.
Same read-out and setting: under `CCOc1ccc(OCCOC)c(C(Nc2ccc(C(=N)N)cc2)C(=O)O)c1` (racemic) [Example 46.4, (RS)-(4-carbamimidoyl-phenylamino)-[5-ethoxy-2-(2-methoxy-ethoxy)-phenyl]-acetic acid] stands 275 °C.
`CCOc1ccc(OCC(N)=O)c(C(Nc2ccc(C(=N)N)cc2)C(=O)O)c1` (racemic) [Example 48.5, (RS)-(4-carbamimidoyl-phenylamino)-(2-carbamoylmethoxy-5-ethoxy-phenyl)-acetic acid]: the melting point turned out to be 266 °C.
Consider `[H]/N=C(\NO)c1ccc(NC(C(=O)OC)c2cc(OC)c(OC)cc2OCc2cccc(C(=O)OC)c2)cc1` (racemic) [Example 52.3, methyl (Z)-(RS)-3-(2-{[4-(N-hydroxycarbamimidoyl)-phenylamino]-methoxycarbonyl-methyl}-4,5-dimethoxy-phenoxymethyl)-benzoate], for which the melting point was found to be 173 °C.
In the case of `CCCc1cc(C)cc(C(Nc2ccc(C(=N)N)cc2)C(=O)O)c1OCCO` (racemic) [Example 56.5, (RS)-(4-carbamimidoyl-phenylamino)-[2-(2-hydroxy-ethoxy)-5-methyl-3-propyl-phenyl]-acetic acid], the melting point amounted to 240 °C.
Same read-out and setting: under `C=CCc1cc(C)cc(C(Nc2ccc(C(=N)N)cc2)C(=O)O)c1OCCO` (racemic) [Example 57.4, (RS)-[3-allyl-2-(2-hydroxy-ethoxy)-5-methyl-phenyl]-(4-carbamimidoyl-phenylamino)-acetic acid] stands 228 °C.
For `CCCc1cc(C)c(OCCO)c(C(Nc2ccc(C(=N)N)cc2)C(=O)O)c1` (racemic) [Example 58.5, (RS)-(4-carbamimidoyl-phenylamino)-[2-(2-hydroxy-ethoxy)-3-methyl-5-propyl-phenyl]-acetic acid], the melting point came out at 230 °C.
